# From patent US8598314B2 (priority 2007, dated 2013)
# Like-named read-outs stand apart in the source and are kept apart here.
# Key:
# [1] = target: T1, endogenously expressed GLP-1 receptor, thyroid c-cell carcinoma line 6-23 (Rattus norvegicus, UniProt P32301); assay: GLP-1 cyclase whole cell cAMP assay; format: cell-based
# T1 construct: the endogenously expressed GLP-1 receptor; endogenous in cells; host or cells: thyroid c-cell carcinoma line 6-23
# T1 sequence (P32301 22-463): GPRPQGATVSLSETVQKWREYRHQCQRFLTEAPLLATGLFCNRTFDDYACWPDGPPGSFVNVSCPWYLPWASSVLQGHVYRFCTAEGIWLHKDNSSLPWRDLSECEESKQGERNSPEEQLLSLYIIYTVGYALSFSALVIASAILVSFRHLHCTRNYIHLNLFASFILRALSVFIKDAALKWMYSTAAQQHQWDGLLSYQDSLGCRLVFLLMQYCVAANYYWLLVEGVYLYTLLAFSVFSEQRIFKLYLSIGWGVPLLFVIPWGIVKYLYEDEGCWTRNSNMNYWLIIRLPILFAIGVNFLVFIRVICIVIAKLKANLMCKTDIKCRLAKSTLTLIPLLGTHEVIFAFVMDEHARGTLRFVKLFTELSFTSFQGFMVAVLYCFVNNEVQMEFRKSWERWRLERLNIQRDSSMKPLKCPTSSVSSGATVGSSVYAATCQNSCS
# Experimental: Cells from the thyroid c-cell carcinoma line 6-23 were grown to confluence and harvested by treatment with Versene ([…]). […] Accumulation of cAMP was measured following 30′ conjugate or control agent treatment using an HTRF® cell-based cAMP assay kit (Cisbio-US, Inc., Bedford, Mass.) in 384-well format. The compounds were tested at final concentrations from 1 μM to 10 pM. The cell-conjugate mixture was incubated for 30′ at room temperature, at which time the reaction was terminated by the addition of kit-provided α-cAMP Cryptate solution. Plates were then sealed and stored at room temperature overnight to allow components to come to full equilibrium. cAMP content was then measured by time resolved fluorescence.
# ACE from rabbit lung = target: T2, ACE from rabbit lung (Oryctolagus cuniculus, UniProt P12822); assay: ACE inhibition assay; format: biochemical
# T2 construct: ACE from rabbit lung; purchased Sigma Chemical Co; host or cells: rabbit lung tissue
# T2 sequence (P12822 34-1310): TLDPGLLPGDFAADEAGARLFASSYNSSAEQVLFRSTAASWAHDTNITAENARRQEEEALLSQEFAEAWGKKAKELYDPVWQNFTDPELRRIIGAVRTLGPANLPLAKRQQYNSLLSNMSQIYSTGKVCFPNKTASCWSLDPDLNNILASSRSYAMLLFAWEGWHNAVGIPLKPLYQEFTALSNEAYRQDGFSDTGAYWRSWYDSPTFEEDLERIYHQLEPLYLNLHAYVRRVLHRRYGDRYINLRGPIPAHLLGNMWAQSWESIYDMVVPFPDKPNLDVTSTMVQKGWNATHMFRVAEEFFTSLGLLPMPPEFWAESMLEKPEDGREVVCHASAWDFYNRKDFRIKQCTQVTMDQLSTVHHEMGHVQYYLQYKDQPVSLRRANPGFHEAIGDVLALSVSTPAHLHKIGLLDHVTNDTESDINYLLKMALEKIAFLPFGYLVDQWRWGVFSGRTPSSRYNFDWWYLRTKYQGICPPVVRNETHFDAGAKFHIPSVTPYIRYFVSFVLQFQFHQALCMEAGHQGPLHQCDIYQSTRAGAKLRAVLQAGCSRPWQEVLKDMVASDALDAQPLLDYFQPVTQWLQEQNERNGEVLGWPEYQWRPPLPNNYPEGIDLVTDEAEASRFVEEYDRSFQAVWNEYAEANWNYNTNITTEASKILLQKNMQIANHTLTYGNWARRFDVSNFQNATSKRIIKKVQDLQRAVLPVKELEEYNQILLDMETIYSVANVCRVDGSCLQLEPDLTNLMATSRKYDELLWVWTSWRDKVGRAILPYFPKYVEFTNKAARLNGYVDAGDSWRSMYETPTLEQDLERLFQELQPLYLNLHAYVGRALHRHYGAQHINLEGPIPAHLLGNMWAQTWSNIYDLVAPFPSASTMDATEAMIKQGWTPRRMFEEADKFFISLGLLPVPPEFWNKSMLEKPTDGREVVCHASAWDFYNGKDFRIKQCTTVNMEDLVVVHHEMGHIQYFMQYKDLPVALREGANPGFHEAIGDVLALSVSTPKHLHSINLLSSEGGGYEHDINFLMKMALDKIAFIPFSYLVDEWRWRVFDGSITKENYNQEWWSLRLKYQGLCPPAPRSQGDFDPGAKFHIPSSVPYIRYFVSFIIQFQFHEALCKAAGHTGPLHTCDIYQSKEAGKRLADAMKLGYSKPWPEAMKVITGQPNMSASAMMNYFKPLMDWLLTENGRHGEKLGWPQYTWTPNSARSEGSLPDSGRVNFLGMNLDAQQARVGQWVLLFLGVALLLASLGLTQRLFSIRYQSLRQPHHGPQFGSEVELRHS
# Experimental: Peptide-ACE peptidase inhibitor conjugate compounds were assessed in an ACE inhibition assay using purified ACE enzyme and chromogenic substrates. An ACE stock solution was prepared by dissolving 0.1 unit of enzyme (ACE from rabbit lung, Sigma Chemical Co., St. Louis, Mo.) in 0.640 mL of HEPES buffer (0.1 M, pH=8). A 2 mM stock solution of substrate (N-benzyloxycarbonyl-Phe-His-Leu-OH) dissolved in methanol. The ACE inhibitor compounds were dissolved in phosphate buffer (0.1 M, pH=8) at concentrations of 0.0, 1, 10, 20, 60 and 100 μM. For the inhibition assay, six 2 mL microcentrifuge tubes were prepared containing 1.45 mL of phosphate buffer pH=8, 0.05 mL of 10% NaCl and 0.015 mL of substrate solution. To each microcentrifuge tube was added 0.015 mL of one of the ACE inhibitor compound's stock solutions. The solutions were heated at 37° C. for about 5 minutes. The reaction was started by the addition of 5 μL of the ACE stock solution to each tube mixture (30 seconds in between). The reaction mixtures were incubated at 37° C. After 5 min, 10 min, 30 min and 60 min., aliquots of 100 μL were taken from each tube (each sample was taken in intervals of 30 seconds). Tubes containing the 100 μL sample were floated in a boiling water bath for 5 min. and then cooled. The reaction samples were then treated with 20 μL of 2M NaOH and 20 μL of 0.1% phthaldialdehyde solution. The tubes were shaken for 4 minutes and 10 μL of 6 M HCl were added. […] Initial rates were determined from linear portions of product release curves. Starting substrate concentration in all assays was 20 μM. Apparent binding constants (Kd^app or Ki^app) of inhibitors to ACE were determined by fitting inhibition curves (initial rate vs. inhibitor concentration) to equation:
# [formula] where v0 is reaction rate in the absence of inhibitor and [I]-inhibitor concentration. Fits were done by least-squares method using KaleidaGraph 3.6 (Synergy Software, Reading Pa.).
# [2] = substrate N-benzyloxycarbonyl-Phe-His-Leu-OH 20 μM, read-out: ACE inhibition IC50
SMILES,EC50 [1] [nM],IC50 (ACE from rabbit lung; [2]) [nM],IC50 (ACE from rabbit lung) [nM]
CC[C@H](C)[C@H](NC(=O)[C@H](Cc1ccccc1)NC(=O)[C@H](CC(C)C)NC(=O)[C@H](CCCNC(=N)N)NC(=O)[C@@H](NC(=O)[C@H](C)NC(=O)[C@H](CCC(=O)O)NC(=O)[C@H](CCC(=O)O)NC(=O)[C@H](CCC(=O)O)NC(=O)[C@H](CC(C)C)NC(=O)[C@H](CCC(N)=O)NC(=O)[C@H](CCCCN)NC(=O)[C@H](CO)NC(=O)[C@H](CC(C)C)NC(=O)[C@H](CC(=O)O)NC(=O)[C@H](CO)NC(=O)[C@@H](NC(=O)[C@H](Cc1ccccc1)NC(=O)[C@@H](NC(=O)CNC(=O)[C@H](CCC(=O)O)NC(=O)CNC(=O)[C@@H](N)Cc1c[nH]cn1)[C@@H](C)O)[C@@H](C)O)C(C)C)C(=O)N[C@@H](CCC(=O)O)C(=O)N[C@@H](Cc1c[nH]c2ccccc12)C(=O)N[C@@H](CC(C)C)C(=O)N[C@@H](CCCCN)C(=O)N[C@@H](CC(N)=O)C(=O)NCCCC(=O)NCCOCCOCC(=O)NCCCC(=O)NCCCC[C@H](NC(CCc1ccccc1)C(=O)O)C(=O)N1CCC[C@H]1C(=O)O (some centres unmarked) [Compound 5605],1.24,300,
CC[C@H](C)[C@H](NC(=O)[C@H](Cc1ccccc1)NC(=O)[C@H](CC(C)C)NC(=O)[C@H](CCCNC(=N)N)NC(=O)[C@@H](NC(=O)[C@H](C)NC(=O)[C@H](CCC(=O)O)NC(=O)[C@H](CCC(=O)O)NC(=O)[C@H](CCC(=O)O)NC(=O)[C@H](CC(C)C)NC(=O)[C@H](CCC(N)=O)NC(=O)[C@H](CCCCN)NC(=O)[C@H](CO)NC(=O)[C@H](CC(C)C)NC(=O)[C@H](CC(=O)O)NC(=O)[C@H](CO)NC(=O)[C@@H](NC(=O)[C@H](Cc1ccccc1)NC(=O)[C@@H](NC(=O)CNC(=O)[C@H](CCC(=O)O)NC(=O)CNC(=O)[C@@H](N)Cc1c[nH]cn1)[C@@H](C)O)[C@@H](C)O)C(C)C)C(=O)N[C@@H](CCC(=O)O)C(=O)N[C@@H](Cc1c[nH]c2ccccc12)C(=O)N[C@@H](CC(C)C)C(=O)N[C@@H](CCCCN)C(=O)N[C@@H](CC(N)=O)C(=O)NCCOCCOCCOCC(=O)NCCOCCOCC(=O)NCCCC[C@H](NC(CCc1ccccc1)C(=O)O)C(=O)N1CCC[C@H]1C(=O)O (some centres unmarked) [Compound 5606],0.23,700,
CC[C@H](C)[C@H](NC(=O)[C@H](Cc1ccccc1)NC(=O)[C@H](CC(C)C)NC(=O)[C@H](CCCNC(=N)N)NC(=O)[C@@H](NC(=O)[C@H](C)NC(=O)[C@H](CCC(=O)O)NC(=O)[C@H](CCC(=O)O)NC(=O)[C@H](CCC(=O)O)NC(=O)[C@H](CC(C)C)NC(=O)[C@H](CCC(N)=O)NC(=O)[C@H](CCCCN)NC(=O)[C@H](CO)NC(=O)[C@H](CC(C)C)NC(=O)[C@H](CC(=O)O)NC(=O)[C@H](CO)NC(=O)[C@@H](NC(=O)[C@H](Cc1ccccc1)NC(=O)[C@@H](NC(=O)CNC(=O)[C@H](CCC(=O)O)NC(=O)CNC(=O)[C@@H](N)Cc1c[nH]cn1)[C@@H](C)O)[C@@H](C)O)C(C)C)C(=O)N[C@@H](CCC(=O)O)C(=O)N[C@@H](Cc1c[nH]c2ccccc12)C(=O)N[C@@H](CC(C)C)C(=O)N[C@@H](CCCCN)C(=O)N[C@@H](CC(N)=O)C(=O)NCCOCCOCCOCC(=O)NCCCC(=O)NCCCC[C@H](NC(CCc1ccccc1)C(=O)O)C(=O)N1CCC[C@H]1C(=O)O (some centres unmarked) [Compound 5609],0.65,1000,
CC[C@H](C)[C@H](NC(=O)[C@H](Cc1ccccc1)NC(=O)[C@H](CC(C)C)NC(=O)[C@H](CCCNC(=N)N)NC(=O)[C@@H](NC(=O)[C@H](C)NC(=O)[C@H](CCC(=O)O)NC(=O)[C@H](CCC(=O)O)NC(=O)[C@H](CCC(=O)O)NC(=O)[C@H](CC(C)C)NC(=O)[C@H](CCC(N)=O)NC(=O)[C@H](CCCCN)NC(=O)[C@H](CO)NC(=O)[C@H](CC(C)C)NC(=O)[C@H](CC(=O)O)NC(=O)[C@H](CO)NC(=O)[C@@H](NC(=O)[C@H](Cc1ccccc1)NC(=O)[C@@H](NC(=O)CNC(=O)[C@H](CCC(=O)O)NC(=O)CNC(=O)[C@@H](N)Cc1c[nH]cn1)[C@@H](C)O)[C@@H](C)O)C(C)C)C(=O)N[C@@H](CCC(=O)O)C(=O)N[C@@H](Cc1c[nH]c2ccccc12)C(=O)N[C@@H](CC(C)C)C(=O)N[C@@H](CCCCN)C(=O)N[C@@H](CCC(N)=O)C(=O)NCC(=O)NCC(=O)N1CCC[C@H]1C(=O)N[C@@H](CO)C(=O)N[C@@H](CCCCN)C(=O)N[C@@H](CCC(=O)O)C(=O)N[C@H](C(=O)N[C@H](C(=O)N[C@@H](CO)C(=O)NCCCC(=O)NCCC(=O)NCCCC[C@H](NC(CCc1ccccc1)C(=O)O)C(=O)N1CCC[C@H]1C(=O)O)[C@@H](C)CC)[C@@H](C)CC (some centres unmarked) [Compound 5716],0.14,,140
